Measured values reported in BigSolDB 2.1.

O=c1c2ccccc2sc2ccccc12
Conditions | solubility (mole fraction)
in 1,4-dioxane, 292.15 K | 0.00919
in 1,4-dioxane, 297.05 K | 0.01
in 1,4-dioxane, 302.05 K | 0.0109
in 1,4-dioxane, 305.05 K | 0.0115
in 1,4-dioxane, 307.95 K | 0.0121
in 1,4-dioxane, 311.15 K | 0.0127
in 1,4-dioxane, 313.85 K | 0.0134
in 1,4-dioxane, 316.85 K | 0.0141
in 1,4-dioxane, 319.35 K | 0.0146
in 1,4-dioxane, 322.55 K | 0.0153
in 1,4-dioxane, 326.55 K | 0.0163
in 1,4-dioxane, 331.55 K | 0.0175
in 1,4-dioxane, 335.95 K | 0.0186
in 2-butanone, 292.15 K | 0.00309
in 2-butanone, 297.05 K | 0.00398
in 2-butanone, 301.95 K | 0.00441
in 2-butanone, 306.65 K | 0.00519
in 2-butanone, 311.25 K | 0.00604
in 2-butanone, 316.15 K | 0.00696
in 2-butanone, 321.25 K | 0.00805
in 2-butanone, 326.55 K | 0.00947
in 2-butanone, 331.55 K | 0.0111
in 2-butanone, 335.95 K | 0.0124
in THF, 292.15 K | 0.00867
in THF, 297.05 K | 0.0101
in THF, 301.95 K | 0.0114
in THF, 306.65 K | 0.0129
in THF, 311.25 K | 0.0147
in THF, 316.15 K | 0.0167
in THF, 321.25 K | 0.0189
in THF, 326.55 K | 0.0213
in THF, 331.55 K | 0.024
in THF, 335.95 K | 0.0274
in acetone, 292.15 K | 0.00191
in acetone, 297.05 K | 0.00225
in acetone, 302.05 K | 0.00265
in acetone, 305.05 K | 0.00293
in acetone, 307.95 K | 0.00317
in acetone, 311.15 K | 0.00356
in acetone, 313.85 K | 0.00389
in acetone, 316.85 K | 0.00407
in acetone, 319.35 K | 0.00456
in acetone, 322.55 K | 0.00492
in acetone, 326.55 K | 0.0055
in acetonitrile, 292.15 K | 0.000466
in acetonitrile, 297.05 K | 0.000614
in acetonitrile, 302.05 K | 0.000806
in acetonitrile, 305.05 K | 0.000947
in acetonitrile, 307.95 K | 0.0011
in acetonitrile, 311.15 K | 0.00132
in acetonitrile, 313.85 K | 0.00147
in acetonitrile, 316.85 K | 0.0017
in acetonitrile, 319.35 K | 0.00192
in acetonitrile, 322.55 K | 0.00225
in acetonitrile, 326.55 K | 0.0027
in acetonitrile, 331.55 K | 0.00336
in acetonitrile, 335.95 K | 0.00411
in dichloromethane, 292.15 K | 0.00692
in dichloromethane, 297.05 K | 0.00849
in dichloromethane, 301.95 K | 0.00981
in dichloromethane, 306.65 K | 0.0114
in dichloromethane, 311.25 K | 0.0134
in ethanol, 292.15 K | 0.000194
in ethanol, 297.05 K | 0.000289
in ethanol, 302.05 K | 0.000428
in ethanol, 305.05 K | 0.000544
in ethanol, 307.95 K | 0.000657
in ethanol, 311.15 K | 0.000847
in ethanol, 313.85 K | 0.00103
in ethanol, 316.85 K | 0.00126
in ethanol, 319.35 K | 0.00153
in ethanol, 322.55 K | 0.00189
in ethanol, 326.55 K | 0.00247
in ethanol, 331.55 K | 0.00342
in ethanol, 335.95 K | 0.00452
in ethyl acetate, 292.15 K | 0.00273
in ethyl acetate, 297.05 K | 0.00319
in ethyl acetate, 302.05 K | 0.00371
in ethyl acetate, 305.05 K | 0.00405
in ethyl acetate, 307.95 K | 0.00444
in ethyl acetate, 311.15 K | 0.00485
in ethyl acetate, 313.85 K | 0.00525
in ethyl acetate, 316.85 K | 0.00565
in ethyl acetate, 319.35 K | 0.00608
in ethyl acetate, 322.55 K | 0.00655
in ethyl acetate, 326.55 K | 0.00732
in ethyl acetate, 331.55 K | 0.0083
in ethyl acetate, 335.95 K | 0.00924
in isopropanol, 292.15 K | 0.000395
in isopropanol, 297.05 K | 0.000539
in isopropanol, 302.05 K | 0.000733
in isopropanol, 305.05 K | 0.000877
in isopropanol, 307.95 K | 0.00106
in isopropanol, 311.15 K | 0.00126
in isopropanol, 313.85 K | 0.00145
in isopropanol, 316.85 K | 0.00172
in isopropanol, 319.35 K | 0.00198
in isopropanol, 322.55 K | 0.00234
in isopropanol, 326.55 K | 0.00288
in isopropanol, 331.55 K | 0.00371
in isopropanol, 335.95 K | 0.00461
in methanol, 292.15 K | 0.000163
in methanol, 297.05 K | 0.000225
in methanol, 301.95 K | 0.000284
in methanol, 306.65 K | 0.000316
in methanol, 311.25 K | 0.0004
in methanol, 316.15 K | 0.000469
in methanol, 321.25 K | 0.00062
in methanol, 326.55 K | 0.000788
in methanol, 331.55 K | 0.000921
in methanol, 335.95 K | 0.00106
in n-propanol, 292.15 K | 0.000546
in n-propanol, 297.05 K | 0.00061
in n-propanol, 301.95 K | 0.000782
in n-propanol, 306.65 K | 0.000892
in n-propanol, 311.25 K | 0.00114
in n-propanol, 316.15 K | 0.00134
in n-propanol, 321.25 K | 0.00175
in n-propanol, 326.55 K | 0.00214
in n-propanol, 331.55 K | 0.00251
in n-propanol, 335.95 K | 0.00317
in toluene, 292.15 K | 0.00373
in toluene, 297.05 K | 0.00456
in toluene, 302.05 K | 0.00554
in toluene, 305.05 K | 0.00624
in toluene, 307.95 K | 0.0069
in toluene, 311.15 K | 0.00782
in toluene, 313.85 K | 0.00858
in toluene, 316.85 K | 0.0096
in toluene, 319.35 K | 0.0103
in toluene, 322.55 K | 0.0116
in toluene, 326.55 K | 0.0134
in toluene, 331.55 K | 0.0158
in toluene, 335.95 K | 0.0181
